Results: the NIST ThermoML archive (doi:10.1021/je034084d)

Details: for vapor or sublimation pressure: Liquid; for molar volume: Gas, isochoric method

FC(C(F)(F)F)C(F)(F)F [1,1,1,2,3,3,3-heptafluoropropane]
Details | vapor or sublimation pressure [kPa]
235.07 K | 35.5
240.23 K | 46.5
245.31 K | 59.9
250.44 K | 76.3
255.11 K | 94.1
260.28 K | 117.5
265.66 K | 146.4
270.55 K | 177.2
275.23 K | 211.1
280.19 K | 252.4
285.44 K | 302.4
290.14 K | 353.3
295.27 K | 416.1
300.24 K | 484.6
305.29 K | 562.6
310.37 K | 650.5
315.41 K | 747.3
320.07 K | 845.9
325.19 K | 965.7
329.97 K | 1088.3
335.04 K | 1230.8
339.99 K | 1383
345.15 K | 1556.8
350.26 K | 1744.7
355.11 K | 1939
360.18 K | 2159.7
365.27 K | 2401.5

Details | molar volume [m3/mol]
293.37 K, 214.8 kPa | 0.0106
298.02 K, 297.6 kPa | 0.007594
298.06 K, 219 kPa | 0.0106
298.58 K, 387 kPa | 0.00567
303.22 K, 304.1 kPa | 0.007596
303.42 K, 223.7 kPa | 0.0106
303.52 K, 484.7 kPa | 0.004479
303.65 K, 395.8 kPa | 0.005671
308.37 K, 228 kPa | 0.0106
308.57 K, 310.7 kPa | 0.007598
308.57 K, 562.5 kPa | 0.003857
308.67 K, 496.4 kPa | 0.00448
308.69 K, 404.7 kPa | 0.005672
313.63 K, 507.6 kPa | 0.004481
313.69 K, 413.2 kPa | 0.005673
314.14 K, 232.7 kPa | 0.01061
314.16 K, 317.9 kPa | 0.0076
314.22 K, 577.9 kPa | 0.003858
318.62 K, 518.9 kPa | 0.004482
318.66 K, 421.6 kPa | 0.005675
319.44 K, 237.1 kPa | 0.01061
319.6 K, 324.5 kPa | 0.007601
319.97 K, 593.4 kPa | 0.003859
323.74 K, 530.4 kPa | 0.004483
323.82 K, 430.2 kPa | 0.005676
324.15 K, 241.1 kPa | 0.01061
324.21 K, 329.9 kPa | 0.007603
324.39 K, 605.1 kPa | 0.003859
328.01 K, 244.4 kPa | 0.01061
328.19 K, 334.6 kPa | 0.007604
328.2 K, 614.9 kPa | 0.00386
328.46 K, 540.6 kPa | 0.004484
328.9 K, 438.8 kPa | 0.005677
333.39 K, 248.8 kPa | 0.01062
333.4 K, 551.4 kPa | 0.004485
333.62 K, 341.1 kPa | 0.007606
333.92 K, 629.9 kPa | 0.003861
334.02 K, 447.3 kPa | 0.005679
338.69 K, 642 kPa | 0.003862
338.92 K, 253.5 kPa | 0.01062
338.96 K, 347.5 kPa | 0.007608
338.96 K, 563.3 kPa | 0.004486
339.15 K, 455.7 kPa | 0.00568
343.8 K, 257.7 kPa | 0.01062
343.94 K, 655.2 kPa | 0.003863
343.99 K, 353.6 kPa | 0.00761
344.11 K, 574.3 kPa | 0.004487
344.27 K, 464.1 kPa | 0.005681
348.97 K, 359.5 kPa | 0.007611
349.04 K, 261.8 kPa | 0.01062
349.14 K, 668.4 kPa | 0.003864
349.17 K, 585 kPa | 0.004488
349.21 K, 472.1 kPa | 0.005682
353.32 K, 364.5 kPa | 0.007613
353.39 K, 679.1 kPa | 0.003864
353.64 K, 265.6 kPa | 0.01063
354.39 K, 596 kPa | 0.004489
354.73 K, 481 kPa | 0.005684
